Test results from US6153190A, “Erythropoietin receptor antibodies” (priority 1997, dated 2000).

Legend:
Type in all cases: cell-based
[1] = test system: erythropoietin (Epo); assay: Inhibition of Epo-induced proliferation of UT7-Epo cells; conditions: stated for all three assays
Protocol: An assay for the measurement of Epo activity on the proliferation of UT7Epo cells, which are dependent on Epo for growth [Komatsu et al., Blood, 82:456-464 (1993)] was performed as follows. The Epo used in the experiment is Epogen (2000 U/ml) [Amgen, Thousand Oaks, Calif.], diluted in phosphate buffered saline (PBS) and human serum albumin (HSA) for storage at 4° C. at 200 U/ml. Dilutions of cleaved EpoR or EpoRFc protein samples were made, so that final concentrations ranged from 0.001 to 100 ng/ml.
Samples of either EpoR or EpoRFc were added to wells at 10 ul/well in quadruplicate. Epo (0.2 U/ml) was added to each well. UT7Epo cells (1×10^5 cells/ml) were plated at 100 ul/well. After the plates were incubated at 37° C. for three days, 10 ul/well of ^3 H-thymidine (diluted to […] in IMDM+10% fetal calf serum (FCS)) were added to a final concentration of 10 uCi/ml. Plates were incubated at 37° C. for four hours with ^3 H-thymidine. The 96-well plates were harvested onto glass fiber filters using the Tomtec plate harvester with 10% cold TCA and cold 95% ethanol. Solid scintillant was melted onto the filters and the samples counted. The mean and standard error of quadruplicate samples was determined.
The data were reported as the percent of positive (0.2 U/ml) Epo control and are illustrated in FIG. 1.

[2] = test system: erythropoietin (Epo); assay: Inhibition of Epo-induced proliferation of 32D/Epo wt cells; conditions: stated for all three assays
Protocol: Another assay was performed for the measurement of Epo activity on the proliferation of 32D/Epo wt cells (Miura, O. et al., Mol. Cell. Biol., 13:1788-1795 (1993)). 32D/Epo wt is an IL-3 dependent cell line transfected with the human Epo receptor.
This assay is performed as described in Part A above, with the modification that the each well contains 1 U/ml Epo. The results of this assay are illustrated in FIG. 2.

[3] = test system: erythropoietin (Epo); assay: Inhibition of Epo-induced CFU-E colony formation; conditions: murine bone marrow CFU-E; stated for all three assays
Protocol: A third assay for measuring the ability of Epo to stimulate the differentiation of murine bone marrow cells to hemoglobin producing mature erythrocytes (CFU-E assay) was performed as described below.
Murine bone marrow cells were flushed from the femur of female B2D6F1 mice. The marrow cells (1×10^5 cells/ml final concentration) were mixed with IMDM, 25% FCS (final) and methylcellulose (0.8% final). 0.4 ml cells was plated per well of 24-well TC plate. EpoRFc (40 ul/well) samples were added and Epo (1 U/ml) was added to each well. Plates were incubated at 37° C., 5% CO2, 6% O2 for two days.
CFU-E colonies containing 8 or more red cells were counted. The mean and standard error of triplicate samples were determined and data reported as the percent of the positive (1 U/ml) Epo control. The results of this assay are illustrated in FIG. 3.

Measured: neutralization of the biological activity of Epo

EpoR: monomeric EpoR extracellular domain protein cleaved from EpoRFc with Factor Xa
able to bind, and thereby neutralize: all assays above
